Source: BigSolDB 2.1

Clc1cccnc1Cl
solubility (mole fraction)
Conditions | 278.15 K | 283.15 K | 288.15 K | 293.15 K | 298.15 K | 303.15 K | 308.15 K | 313.15 K
in 1,4-dioxane | – | – | 0.241 | 0.285 | 0.332 | 0.382 | 0.442 | 0.514
in acetonitrile | 0.061 | 0.0806 | 0.108 | 0.137 | 0.178 | 0.23 | 0.295 | 0.389
in cyclohexane | – | 0.0334 | 0.045 | 0.061 | 0.0796 | 0.106 | 0.145 | 0.187
in dichloromethane | 0.213 | 0.238 | 0.27 | 0.304 | 0.346 | 0.386 | 0.432 | 0.489
in ethanol | 0.0314 | 0.0418 | 0.0558 | 0.071 | 0.0902 | 0.115 | 0.145 | 0.188
in ethyl acetate | 0.166 | 0.194 | 0.223 | 0.259 | 0.302 | 0.349 | 0.398 | 0.46
in isobutanol | 0.0394 | 0.0507 | 0.0654 | 0.0836 | 0.108 | 0.14 | 0.18 | 0.232
in isopropanol | 0.032 | 0.0401 | 0.0532 | 0.0687 | 0.0895 | 0.117 | 0.154 | 0.2
in methanol | 0.0181 | 0.0259 | 0.0362 | 0.0505 | 0.0676 | 0.0943 | 0.129 | 0.178
in methyl acetate | 0.146 | 0.172 | 0.203 | 0.237 | 0.28 | 0.321 | 0.374 | 0.425
in n-butanol | 0.0489 | 0.0607 | 0.0798 | 0.0983 | 0.123 | 0.155 | 0.197 | 0.249
in n-butyl acetate | 0.185 | 0.213 | 0.246 | 0.282 | 0.324 | 0.372 | 0.424 | 0.487
in n-hexane | 0.0154 | 0.0216 | 0.029 | 0.0387 | 0.0516 | 0.0684 | 0.0906 | 0.123
in n-propanol | 0.0378 | 0.0479 | 0.0606 | 0.0804 | 0.1 | 0.129 | 0.164 | 0.211
